Measured values from EP3046573B1, “AMYLIN ANALOGUES” (Zealand Pharma A/S, priority 2013, dated 2015).
Like-named read-outs stand apart in the source and are kept apart here. Marks after values point to notes of the source that are not given here. Numbered stars: 1 amine (or outer) side, 2 acyl side, 3 side chain; on linkers, the order of the positions; unused ones are H or OH. Bridge positions count the residues as written; N and C are the ends. Square brackets hold non-standard residues; d marks the D form. Peptide text beside a SMILES is read from it. * marks the point of attachment. C20 diacid = O=C(O)CCCCCCCCCCCCCCCCCCC(=O)*; γGlu = O=C(O)[C@H](CCC(=O)[*:2])N[*:1]; Hyp = O=C(O)[C@@H]1C[C@@H](O)CN1; NMeI = CC[C@H](C)[C@H](NC)C(=O)O; Sar = CNCC(=O)O

Key:
[1] = Assessment of physical stability: fibril formation detected with Thioflavin T (ThT), lag-time; type: physicochemical; conditions: 1 mg/ml peptide, 40 µM ThT, FND = Fibrillation not detected; for Fibrillation lag time (hours) pH 4.0 (Ac): 50 mM acetate buffer pH 4.0, 96 hours at 40°C; for Fibrillation lag time (hours) pH 7.0 (His): 50 mM histidine buffer pH 7.0, 96 hours at 40°C; for Fibrillation lag time (hours) pH 7.0 (Ph): 50 mM phosphate buffer pH 7.0, 96 hours at 40°C
How it was run: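 Test peptide at 1 mg/ml with 40 µM ThT in 50 mM phosphate (pH 7.0), 50 mM histidine (pH 7.0) or 50 mM acetate (pH 4.0), in triplicate, 40° C. for 96 h. Fluorescence read every 10 min after 300 s agitation. Lag-time (h) taken as intersection of linear fits to initial stable and growth phases.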

[2] = molecular target: T1, human amylin receptor 3 (hAMYR3) consisting of hCTR2 co-expressed with human Receptor Activity Modifying Protein 3 (hRAMP3) (Homo sapiens, UniProt O60896+P30988); test: hAMYR3 assay: induction of cAMP (AlphaScreen cAMP Assay kit) in COS7 cells expressing hAMYR3; type: cell-based
T1 construct: expressed in transfected cells
T1 sequence (P30988 25-474): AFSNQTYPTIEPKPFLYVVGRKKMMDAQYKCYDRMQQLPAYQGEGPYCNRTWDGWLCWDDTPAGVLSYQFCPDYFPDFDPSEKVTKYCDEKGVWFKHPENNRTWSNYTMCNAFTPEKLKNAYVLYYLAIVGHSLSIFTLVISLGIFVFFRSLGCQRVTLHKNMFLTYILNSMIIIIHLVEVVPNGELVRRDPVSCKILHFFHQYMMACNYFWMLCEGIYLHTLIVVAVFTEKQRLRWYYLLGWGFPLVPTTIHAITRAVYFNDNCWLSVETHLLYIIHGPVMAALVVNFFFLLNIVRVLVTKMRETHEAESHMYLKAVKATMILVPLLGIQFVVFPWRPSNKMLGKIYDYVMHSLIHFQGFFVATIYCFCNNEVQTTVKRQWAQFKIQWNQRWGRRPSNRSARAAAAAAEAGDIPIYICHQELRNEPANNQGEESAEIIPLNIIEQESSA
T1 sequence (O60896 24-148 partner): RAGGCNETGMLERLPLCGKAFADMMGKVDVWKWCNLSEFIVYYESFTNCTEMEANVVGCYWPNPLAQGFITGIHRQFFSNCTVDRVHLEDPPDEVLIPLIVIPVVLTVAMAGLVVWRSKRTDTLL
How it was run: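 cAMP accumulation read by AlphaScreen in lysates of RAMP-naive COS7 cells stably transfected with hCTR2 plus hRAMP3. Cells exposed to peptide dilutions for 15 min, 37° C, with 100 µM IBMX; 4PL fitting gave EC50 and efficacy relative to pramlintide.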

[3] = cAMP induction in COS7 cells expressing hAMYR3, average of a minimum of 3 determinations, read-out: hAMY R3 EC50

## CC[C@H](C)[C@@H](C(=O)N[C@@H](CC(C)C)C(=O)N[C@@H](CO)C(=O)N[C@@H](CO)C(=O)N[C@H](C(=O)N[C@@H](CCC(=O)O)C(=O)N[C@H](C(=O)NCC(=O)N[C@@H](CO)C(=O)N[C@@H](CCC(=O)O)C(=O)N[C@H](C(=O)N1C[C@H](O)C[C@H]1C(N)=O)[C@@H](C)O)C(C)C)[C@@H](C)O)N(C)C(=O)[C@H](C)NC(=O)CN(C)C(=O)[C@H](Cc1ccccc1)NC(=O)[C@H](CO)NC(=O)[C@H](CO)NC(=O)[C@H](CCCNC(=N)N)NC(=O)[C@H](Cc1c[nH]cn1)NC(=O)[C@H](CC(C)C)NC(=O)[C@H](Cc1ccccc1)NC(=O)[C@H](CCC(=O)O)NC(=O)[C@H](C)NC(=O)[C@H](CC(C)C)NC(=O)[C@H](CCCNC(=N)N)NC(=O)[C@H](CCC(=O)O)NC(=O)[C@@H](NC(=O)[C@H](C)NC(=O)[C@@H]1CSSC[C@H](NC(=O)[C@H](CCCNC(=N)N)NC(=O)CC[C@H](NC(=O)CCCCCCCCCCCCCCCCCCC(=O)O)C(=O)O)C(=O)NCC(=O)N[C@@H]([C@@H](C)O)C(=O)N[C@@H](C)C(=O)N[C@@H]([C@@H](C)O)C(=O)N1)[C@@H](C)O [Compound 166, [19CD]-isoGlu-RC()GTATC()ATERLAEFLHRSSF-Gly(Me)-A-Ile(Me)-LSSTEVGSET-Hyp-NH2] ({C20 diacid-γGlu}-RCGTATCATERLAEFLHRSSF[Sar]A[NMeI]LSSTEVGSET[Hyp]-NH2; disulfide 2-7)
[1]
  Fibrillation lag time (hours) pH 4.0 (Ac): FND
  Fibrillation lag time (hours) pH 7.0 (His): FND
  Fibrillation lag time (hours) pH 7.0 (Ph): FND
[2]; [3]
  EC50: 110 pM

## CC[C@H](C)[C@@H](C(=O)N[C@@H](CC(C)C)C(=O)N[C@@H](CO)C(=O)N[C@@H](CO)C(=O)N[C@H](C(=O)N[C@@H](CC(N)=O)C(=O)N[C@H](C(=O)NCC(=O)N[C@@H](CO)C(=O)N[C@@H](CC(N)=O)C(=O)N[C@H](C(=O)N1CCC[C@H]1C(N)=O)[C@@H](C)O)C(C)C)[C@@H](C)O)N(C)C(=O)[C@H](C)NC(=O)CN(C)C(=O)[C@H](Cc1ccccc1)NC(=O)[C@H](CC(N)=O)NC(=O)[C@H](CC(N)=O)NC(=O)[C@H](CO)NC(=O)[C@H](CO)NC(=O)[C@H](CCCNC(=N)N)NC(=O)[C@H](Cc1c[nH]cn1)NC(=O)[C@H](CC(C)C)NC(=O)[C@H](Cc1ccccc1)NC(=O)[C@H](CCC(=O)O)NC(=O)[C@H](C)NC(=O)[C@H](CC(C)C)NC(=O)[C@H](CCCNC(=N)N)NC(=O)[C@H](CCC(N)=O)NC(=O)[C@@H](NC(=O)[C@H](C)NC(=O)[C@@H]1CSSC[C@H](NC(=O)[C@H](Cc2c[nH]c3ccccc23)NC(=O)[C@H](CCCNC(=N)N)NC(=O)CC[C@H](NC(=O)CCCCCCCCCCCCCCCCCCC(=O)O)C(=O)O)C(=O)N[C@@H](CC(N)=O)C(=O)N[C@@H]([C@@H](C)O)C(=O)N[C@@H](C)C(=O)N[C@@H]([C@@H](C)O)C(=O)N1)[C@@H](C)O [Compound 174, [19CD]-isoGlu-RWC()NTATC()ATQRLAEFLHRSSNNF-Gly(Me)-A-Ile(Me)-LSSTNVGSNTP-NH2] ({C20 diacid-γGlu}-RWCNTATCATQRLAEFLHRSSNNF[Sar]A[NMeI]LSSTNVGSNTP-NH2; disulfide 3-8)
[1]
  Fibrillation lag time (hours) pH 4.0 (Ac): FND
  Fibrillation lag time (hours) pH 7.0 (His): FND
  Fibrillation lag time (hours) pH 7.0 (Ph): FND
[2]
  EC50: 180 pM

## CC[C@H](C)[C@@H](C(=O)N[C@@H](CC(C)C)C(=O)N[C@@H](CO)C(=O)N[C@@H](CO)C(=O)N[C@H](C(=O)N[C@@H](CC(N)=O)C(=O)N[C@H](C(=O)NCC(=O)N[C@@H](CO)C(=O)N[C@@H](CC(N)=O)C(=O)N[C@H](C(=O)N1CCC[C@H]1C(N)=O)[C@@H](C)O)C(C)C)[C@@H](C)O)N(C)C(=O)[C@H](C)NC(=O)CN(C)C(=O)[C@H](Cc1ccccc1)NC(=O)[C@H](CC(N)=O)NC(=O)[C@H](CC(N)=O)NC(=O)[C@H](CO)NC(=O)[C@H](CO)NC(=O)[C@H](CCCNC(=N)N)NC(=O)[C@H](Cc1c[nH]cn1)NC(=O)[C@H](CC(C)C)NC(=O)[C@H](Cc1ccccc1)NC(=O)[C@H](CCC(=O)O)NC(=O)[C@H](C)NC(=O)[C@H](CC(C)C)NC(=O)[C@H](CCCNC(=N)N)NC(=O)[C@H](CCC(N)=O)NC(=O)[C@@H](NC(=O)[C@H](C)NC(=O)[C@@H]1CSSC[C@H](NC(=O)[C@H](CCCCN)NC(=O)[C@H](CCCCN)NC(=O)CC[C@H](NC(=O)CCCCCCCCCCCCCCCCCCC(=O)O)C(=O)O)C(=O)N[C@@H](CC(N)=O)C(=O)N[C@@H]([C@@H](C)O)C(=O)N[C@@H](C)C(=O)N[C@@H]([C@@H](C)O)C(=O)N1)[C@@H](C)O [Compound 87, [19CD]-isoGlu-KKC()NTATC()ATQRLAEFLHRSSNNF-Gly(Me)-A-Ile(Me)-LSSTNVGSNTP-NH2] ({C20 diacid-γGlu}-KKCNTATCATQRLAEFLHRSSNNF[Sar]A[NMeI]LSSTNVGSNTP-NH2; disulfide 3-8)
[1]
  Fibrillation lag time (hours) pH 4.0 (Ac): 78^‡ hours
  Fibrillation lag time (hours) pH 7.0 (His): FND
  Fibrillation lag time (hours) pH 7.0 (Ph): 50^‡‡ hours

## CC[C@H](C)[C@H](NC(=O)[C@@H]1CCCN1C(=O)CNC(=O)[C@H](Cc1ccccc1)NC(=O)[C@H](CC(N)=O)NC(=O)[C@H](CC(N)=O)NC(=O)[C@H](CO)NC(=O)[C@H](CO)NC(=O)[C@H](Cc1c[nH]cn1)NC(=O)[C@H](Cc1c[nH]cn1)NC(=O)[C@H](CC(C)C)NC(=O)[C@H](Cc1ccccc1)NC(=O)[C@H](CCC(=O)O)NC(=O)[C@H](C)NC(=O)[C@H](CC(C)C)NC(=O)[C@H](CCCNC(=N)N)NC(=O)[C@H](CCC(N)=O)NC(=O)[C@@H](NC(=O)[C@H](C)NC(=O)[C@@H]1CSSC[C@H](NC(=O)[C@H](CCCNC(=N)N)NC(=O)CC[C@H](NC(=O)CCCCCCCCCCCCCCCCCCC(=O)O)C(=O)O)C(=O)N[C@@H](CC(N)=O)C(=O)N[C@@H]([C@@H](C)O)C(=O)N[C@@H](C)C(=O)N[C@@H]([C@@H](C)O)C(=O)N1)[C@@H](C)O)C(=O)N[C@@H](CC(C)C)C(=O)N1CCC[C@H]1C(=O)N1CCC[C@H]1C(=O)N[C@H](C(=O)N[C@@H](CC(N)=O)C(=O)N[C@H](C(=O)NCC(=O)N[C@@H](CO)C(=O)N[C@@H](CC(N)=O)C(=O)N[C@H](C(=O)N1CCC[C@H]1C(N)=O)[C@@H](C)O)C(C)C)[C@@H](C)O [NN96, N-α-[(S)-4-carboxy-4-(19-carboxynonadecanoylamino)butyryl]-[Arg1,Glu14,His17,Pro37]-pramlintide, reference compound] ({C20 diacid-γGlu}-RCNTATCATQRLAEFLHHSSNNFGPILPPTNVGSNTP-NH2; disulfide 2-7)
[2]
  EC50: 150 pM

## CC[C@H](C)[C@@H](C(=O)N[C@@H](CC(C)C)C(=O)N1CCC[C@H]1C(=O)N1CCC[C@H]1C(=O)N[C@H](C(=O)N[C@@H](CC(N)=O)C(=O)N[C@H](C(=O)NCC(=O)N[C@@H](CO)C(=O)N[C@@H](CC(N)=O)C(=O)N[C@H](C(=O)N1CCC[C@H]1C(N)=O)[C@@H](C)O)C(C)C)[C@@H](C)O)N(C)C(=O)CN(C)C(=O)[C@H](Cc1ccccc1)NC(=O)[C@H](CC(N)=O)NC(=O)[C@H](CC(N)=O)NC(=O)[C@H](CO)NC(=O)[C@H](CO)NC(=O)[C@H](Cc1c[nH]cn1)NC(=O)[C@H](Cc1c[nH]cn1)NC(=O)[C@H](CC(C)C)NC(=O)[C@H](Cc1ccccc1)NC(=O)[C@H](CCC(=O)O)NC(=O)[C@H](C)NC(=O)[C@H](CC(C)C)NC(=O)[C@H](CCCNC(=N)N)NC(=O)[C@H](CCC(N)=O)NC(=O)[C@@H](NC(=O)[C@H](C)NC(=O)[C@@H]1CSSC[C@H](NC(=O)[C@H](CCCNC(=N)N)NC(=O)CC[C@H](NC(=O)CCCCCCCCCCCCCCCCCCC(=O)O)C(=O)O)C(=O)N[C@@H](CC(N)=O)C(=O)N[C@@H]([C@@H](C)O)C(=O)N[C@@H](C)C(=O)N[C@@H]([C@@H](C)O)C(=O)N1)[C@@H](C)O [Compound 176, [19CD]-isoGlu-RC()NTATC()ATQRLAEFLHHSSNNF-Gly(Me)-Ile(Me)-LPPTNVGSNTP-NH2] ({C20 diacid-γGlu}-RCNTATCATQRLAEFLHHSSNNF[Sar][NMeI]LPPTNVGSNTP-NH2; disulfide 2-7)
[2]; [3]
  EC50: 170 pM
